Measurements taken from the NIST ThermoML archive (doi:10.1016/j.jct.2009.05.001).

Experiment: xn = mol fraction of the nth substance listed
Conditions: 101 kPa, Liquid; for speed of sound: Sing-around technique in a fixed-path interferometer; for mass density: Vibrating tube method

ClC(Cl)C(Cl)Cl [1,1,2,2-tetrachloroethane] + CCCCCCO
Conditions	mass density, 308.15 K [kg/m3]	mass density, 313.15 K [kg/m3]	speed of sound, 308.15 K [m/s]	speed of sound, 313.15 K [m/s]
x1 = 0.0688	853.014	849.095	1241.8	1225.3
x1 = 0.123	889.246	885.104	1220.7	1204.1
x1 = 0.2457	973.918	969.244	1176.4	1160
x1 = 0.3618	1057.58	1052.37	1138.6	1122.3
x1 = 0.4502	1123.79	1118.17	1112.2	1096
x1 = 0.5583	1208.04	1201.9	1082.7	1066.7
x1 = 0.6518	1283.92	1277.31	1060	1044.2
x1 = 0.7068	1329.98	1323.07	1047.9	1032.3
x1 = 0.7419	1360.06	1352.96	1040.7	1025.1
x1 = 0.7797	1392.95	1385.63	1033.5	1018
x1 = 0.8315	1438.91	1431.3	1024.4	1009.1
x1 = 0.8718	1475.7	1467.85	1018	1002.8
x1 = 0.9179	1518.39	1510.31	1012.1	997.14
x1 = 0.9504	1549.36	1541.12	1009.1	994.34
x1 = 1	1597.75	1589.36	1008.9	994.15

BrCCBr [1,2-dibromoethane] + CCCCCCO
Conditions	mass density, 308.15 K [kg/m3]	mass density, 313.15 K [kg/m3]	speed of sound, 308.15 K [m/s]	speed of sound, 313.15 K [m/s]
x1 = 0.0402	845.2	841.335	1246.8	1230.7
x1 = 0.0682	871.58	867.573	1231.5	1215.3
x1 = 0.1276	929.152	924.828	1200.8	1184.8
x1 = 0.2056	1008.3	1003.54	1163.8	1148.2
x1 = 0.2686	1075.32	1070.19	1136.5	1121.2
x1 = 0.3892	1211.59	1205.72	1090.4	1075.6
x1 = 0.4277	1258.28	1252.15	1077	1062.5
x1 = 0.5444	1406.53	1399.6	1041.2	1027.1
x1 = 0.6405	1539.27	1531.62	1016.5	1003
x1 = 0.7326	1676.75	1668.38	996.88	983.86
x1 = 0.8519	1871.88	1862.55	978.58	966.15
x1 = 0.9273	2006.87	1996.95	971.93	959.29
x1 = 0.9587	2066.14	2055.98	970.13	957.92
x1 = 0.9782	2104.45	2094.14	969.05	956.68
x1 = 1	2148.2	2137.69	968.69	956.08

ClCCCl [1,2-dichloroethane] + CCCCCCO
Conditions	mass density, 308.15 K [kg/m3]	mass density, 313.15 K [kg/m3]	speed of sound, 308.15 K [m/s]	speed of sound, 313.15 K [m/s]
x1 = 0.037	817.675	813.926	1262.4	1246.1
x1 = 0.0769	828.456	824.595	1254.6	1238.5
x1 = 0.1499	848.617	844.565	1240.1	1223.2
x1 = 0.2147	867.202	863.005	1226.8	1210.1
x1 = 0.2935	891.704	887.346	1212.5	1195.8
x1 = 0.3952	926.131	921.594	1195.1	1177.8
x1 = 0.4532	947.081	942.428	1185.4	1167.5
x1 = 0.5596	988.685	983.815	1169.3	1151.5
x1 = 0.6113	1010.54	1005.54	1162	1144.6
x1 = 0.6971	1049.83	1044.5	1153.5	1135.8
x1 = 0.7791	1091.94	1086.13	1148.8	1131.2
x1 = 0.8563	1135.2	1128.8	1148	1129
x1 = 0.9335	1184.46	1177.4	1151.1	1128.9
x1 = 0.979	1215.34	1207.97	1152.8	1132.9
x1 = 1	1230.88	1223.41	1155.3	1136.2

CCCCCCO [hexan-1-ol] + BrCCBr
x2 = 0
Conditions	mass density [kg/m3]	speed of sound [m/s]
308.15 K	808.056	1270.2
313.15 K	804.397	1253.6

CCCCCCO [hexan-1-ol] + ClC(Cl)C(Cl)Cl
x2 = 0
Conditions	mass density [kg/m3]	speed of sound [m/s]
308.15 K	808.056	1270.2
313.15 K	804.397	1253.6

CCCCCCO [hexan-1-ol] + ClCCCl
x2 = 0
Conditions	mass density [kg/m3]	speed of sound [m/s]
308.15 K	808.056	1270.2
313.15 K	804.397	1253.6
